These results are taken from EPA's ToxValDB 9.5 (doi:10.2903/j.efsa.2019.5821).

SMILES strings stand for the structures. Values after ≈ are worked out from the molar mass of the structure shown.

The subject of one data set is Mus musculus. As to conditions: chronic; duration: 18 months; body weight.
The next data set deals with Oryctolagus sp. The following applies: developmental; development.
The test system of a further data set is Folsomia candida. The following applies: chronic/long-term; duration: 28 days; mortality.
The test system of a further data set is Apis mellifera. The following applies: acute, mortality.
The next data set concerns Tagia sp. The following applies: chronic/long-term; duration: 56 days; reproduction.
A further data set has as its system Daphnia magna. The following applies: chronic/long-term; duration: 21 days; reproduction.
A further data set relates to Oncorhynchus mykiss. As to conditions: acute; duration: 96 hours; mortality.
The subject of a further data set is Rattus norvegicus. As to conditions: for NOAEL: body weight.
For another data set, the system named is Typhlodromus pyri. Kind of data set: LR50; higher = less toxic. As to conditions: not reported; mortality.

Turning to `CON(C(=O)c1cn(C)nc1C(F)F)C(C)Cc1c(Cl)cc(Cl)cc1Cl` (configuration not stated) [Pydiflumetofen], the values for the no observed adverse effect level (NOAEL) in the data set on Mus musculus, in the data set on Oryctolagus sp. and in the data set with Rattus norvegicus (reproduction developmental) were 9.2 mg/kg-day, 10 mg/kg-day and 30 mg/kg-day, respectively. In addition, the LC50 in the data set on Colinus virginianus (acute, oral, diet, mortality) is > 1260 mg/kg-day; in the data set with Oncorhynchus mykiss it was 0.18 µg/mL (≈ 0.422 µM). Also, the LD50 was 3780 mg/kg-day in the data set on Colinus virginianus (acute, oral, mortality); > 100 µg/piece in the data set on Apis mellifera (dermal); > 116 µg/piece in the data set on Apis mellifera (oral, unspecified); > 5000 mg/kg-day in the data set on Rattus norvegicus (acute, oral, mortality). The NOEC in the data set on Colinus virginianus (reproduction developmental) was 90.1 mg/kg-day; in the data set on Folsomia candida it was 186 mg/kg; in the data set on Tagia sp., 15.9 mg/kg; in the data set with Daphnia magna, 0.042 mg/L. The LR50 with Typhlodromus pyri is > 408 g/ha.

As to `Cn1cc(C(N)=O)c(C(F)F)n1` [3-(Difluoromethyl)-1-methyl-1H-pyrazole-4-carboxamide], in the data set with Rattus norvegicus (short-term, duration: 28 days), the NOAEL – broadly, the highest tested level that showed no adverse finding – came out at 37.4 mg/kg-day.

`Cn1cc(C(=O)O)c(C(F)F)n1` [3-(Difluoromethyl)-1-methyl-1H-pyrazole-4-carboxylic acid] returned an NOAEL in the data set with Oryctolagus sp. of 250 mg/kg-day. Besides, the LC50 in the data set with Oncorhynchus mykiss was > 100 µg/mL.
